The values that follow come from PMC11134331, “Cell-active small molecule inhibitors validate the SNM1A DNA repair nuclease as a cancer target” (Chemical Science, 2024).

One may read the pIC50 as the negative decadic logarithm of the IC50, by convention in mol/L.

pIC50: −log10 of the molar value.

The target in data set [1] is T1, SNM1A (Homo sapiens, UniProt Q6PJP8).
T1 sequence (Q6PJP8 676-1040): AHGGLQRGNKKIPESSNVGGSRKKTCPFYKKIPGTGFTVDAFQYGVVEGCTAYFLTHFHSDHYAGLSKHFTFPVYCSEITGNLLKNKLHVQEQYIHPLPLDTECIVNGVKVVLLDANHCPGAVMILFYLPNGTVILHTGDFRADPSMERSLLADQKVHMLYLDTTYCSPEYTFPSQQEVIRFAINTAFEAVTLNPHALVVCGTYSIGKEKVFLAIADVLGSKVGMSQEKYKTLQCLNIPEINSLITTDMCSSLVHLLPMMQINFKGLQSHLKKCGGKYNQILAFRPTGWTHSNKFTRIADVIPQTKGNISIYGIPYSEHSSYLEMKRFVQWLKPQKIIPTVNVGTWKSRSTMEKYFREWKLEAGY
Put plainly: real-time fluorescence-based nuclease assay, SNM1A. The data set is classed as biochemical. Details: DNA encoding for the MBL and β-CASP domains of SNM1A (aa 676–1040) was cloned into the baculovirus transfer vector pFB-LIC-Bse; inferred from vector pFB-LIC-Bse and the IMAC purification; made in house; host or cells: Sf9 insect cells (baculovirus). The note with it: for pIC50: read-out: SNM1A IC50. The procedure:
In brief, the fluorescence-based nuclease assay utilises a chemically modified 20-nucleotide ssDNA substrate with a fluorescein isothiocyanate (FITC) derived 5′-group and an internal black-hole-quencher-1 (BHQ-1), located eight nucleotides distal to the fluorescein group. In the intact substrate the BHQ-1 suppresses fluorescence, however, exonucleolytic digestion of the substrate from the 5′ end by SNM1A uncouples the BHQ-1 and FITC moieties (see Fig. 1D). Spectra were measured every 140 seconds with an increase in fluorescence indicating enzymatic activity by SNM1A (concentration: 0.1 nM).
(§1) Fluorescence-based nuclease digestion SNM1A–C assays were performed as described.[30,45] In the case of SNM1A and SNM1B, a 20-mer oligonucleotide with a 5′ FITC-conjugated-T and an internal BHQ-1 (black hole quencher) conjugated-T, eight nucleotides distal (3′) to the fluor was utilised; whereas for SNM1C a 20-mer oligonucleotide with a 5′ FITC-conjugated-T and a 3′ BHQ-1(black hole quencher) was used to capture all possible endonucleolytic incisions. Reactions (25 μL) were performed in 384 well microplates in nuclease buffer (20 mM HEPES-KOH pH 7.5, 50 mM KCl, 10 mM MgCl2, 0.5 mM TCEP, 0.05% (v/v) Triton-X, 0.1 mg mL^−1 BSA, 5% (v/v) glycerol) with SNM1A/B/C (0.1 nM SNM1A, 0.5 nM SNM1B and 1 nM SNM1C) as indicated. Proteins were incubated for 10 min at RT with the stated compound where applicable, before the reaction was initiated with the addition of 10 nM DNA substrate. […] Fluorescence spectra were measured every 140 s, for 35 min, at 37 °C. The fluorescence intensity of each well was plotted against compound concentration and fitted using a log (inhibitor) response curve using GraphPad Prism software (GraphPad Software, Inc., La Jolla, CA, USA).

Data set [2] has as its target T2, SNM1C (Homo sapiens, UniProt Q96SD1).
T2 construct: for the MBL and β-CASP domains of SNM1C (aa 1–362) into the baculovirus expression vector pBF-6HZB; made in house; host or cells: Sf9 insect cells (baculovirus)
Briefly: real-time fluorescence-based nuclease assay, SNM1C. The data set is classed as biochemical.
Text: There is structural similarity between SNM1A, SNM1B, and SNM1C and major mechanistic features are likely conserved between the three nucleases. We therefore tested (13) and other hydroxamic acid analogues for inhibition of SNM1B and SNM1C. […] Note that the substrate utilised for the high-throughput fluorescence based and subsequent SNM1A and SNM1B assays differed slightly for SNM1C reflecting its (primarily) endonucleolytic, rather than exonucleolytic, activity (ESI Fig. 9 ^†).
as §1

Data set [3] has as its target T1, SNM1A. Put plainly: gel-based nuclease assay, SNM1A. In kind it is biochemical. Details: DNA encoding for the MBL and β-CASP domains of SNM1A (aa 676–1040) was cloned into the baculovirus transfer vector pFB-LIC-Bse; inferred from vector pFB-LIC-Bse and the IMAC purification; made in house; host or cells: Sf9 insect cells (baculovirus). The note with it: 0.5 nM SNM1A. From the text: (§2) To validate the inhibition of SNM1A, SNM1B, and SNM1C observed in the fluorescence-based screening assays, we then performed gel-based assays using 3′ terminally-labelled oligonucleotide substrates that enable both quantitative and qualitative (visual) assessment of the pattern of inhibition, for a subset of compounds. Importantly, whereas the fluorescence-based assay measures a single hydrolytic event at the substrate terminus, the gel-based nuclease assay informs on the pattern of digestion of the entire 51-mer substrate DNA over time.
(§3) Standard exonuclease assays were carried out in a 10 μL final volume containing 20 mM HEPES-KOH, pH 7.5, 50 mM KCl, 0.5 mM TCEP, 10 mM MgCl2, 0.05% (v/v) Triton X-100, 5% (v/v) glycerol, and SNM1 proteins as indicated. Inhibitors were dissolved in DMSO and diluted immediately prior to the reaction in the above buffer. Inhibitors were serially diluted two-fold from 100 μM. The DMSO concentration was kept constant at 0.1% (v/v) in the final reaction mixture. Inhibitors were incubated with the indicated SNM1 enzyme for 10 minutes at room temperature; reactions were initiated by addition of 10 nM DNA substrate and incubated at 37 °C for 20 min. Reactions were quenched by addition of 5 μL stop solution (95% formamide, 10 mM EDTA, 0.25% (v/v) xylene cyanol, 0.25% (v/v) bromophenol blue) and heated at 95 °C for 3 min. Reactions were analysed by 20% denaturing polyacrylamide gel electrophoresis solution of 19 : 1 acrylamide:bis-acrylamide, BioRad and 7 M urea (Sigma Aldrich) in 1 × TBE (Tris-borate EDTA) buffer. Electrophoresis was carried out at 525 V for 75 minutes; gels were subsequently fixed for 60 minutes in a 50% (v/v) methanol, 10% (v/v) acetic acid solution, and dried at 80 °C for two hours under vacuum. Dried gels were exposed to a Kodak Phosphor imager screen and scanned using a Typhoon 9500 instrument (GE Healthcare), scanned images were quantified using ImageJ.

In a further data set the target is T3, SNM1B (Homo sapiens, UniProt Q9H816).
T3 construct: for the MBL and β-CASP domains of SNM1B (aa 1–335) into baculoviral expression vectors pFB-CT10HF-LIC; made in house; host or cells: Sf9 insect cells (baculovirus)
T3 sequence (Q9H816 1-335): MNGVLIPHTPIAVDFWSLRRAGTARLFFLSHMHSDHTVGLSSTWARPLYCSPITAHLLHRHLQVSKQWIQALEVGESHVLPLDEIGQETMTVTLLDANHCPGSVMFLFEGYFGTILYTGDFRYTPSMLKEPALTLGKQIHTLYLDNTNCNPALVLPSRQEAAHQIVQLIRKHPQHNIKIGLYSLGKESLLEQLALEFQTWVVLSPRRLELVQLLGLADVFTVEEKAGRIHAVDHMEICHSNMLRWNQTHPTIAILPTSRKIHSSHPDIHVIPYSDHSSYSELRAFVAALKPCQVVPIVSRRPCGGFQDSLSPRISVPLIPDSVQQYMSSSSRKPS
Put plainly: gel-based nuclease assay, SNM1B. In kind it is biochemical. The note with it: 1 nM SNM1B.
Text: as §2, §3
Suppl. Figure 10. Increasing concentrations (as indicated, in μM) of compounds incubated with 1 nM SNM1B or 2.5 nM SNM1C (room temperature, 10 min), before initiating nuclease reaction by addition of ssDNA (37 °C, 20 min). Products were analysed by 20% denaturing PAGE. Gels are representative versions from a minimum of three independent experimental repeats.
(1 picture or pasted object on this page, not shown here)

Data set [4] addresses T2, SNM1C. Briefly: gel-based nuclease assay, SNM1C. In kind it is biochemical.
Text: as §2, §3
Suppl. Figure 10. […] Products were analysed by 20% denaturing PAGE. […]

Data set [5] concerns U2OS (osteosarcoma) cells. Put plainly: clonogenic survival assay, U2OS cells. The note with it: for cell death as single agent: U2OS, 50 μM compound. The data set is classed as cell-based, human. The procedure:
Clonogenic assays were performed in 10 cm tissue culture dishes (for RPE-1 cells, U2OS cells and derived clones). Cells (1000 per dish) were seeded in complete media (10 mL) and allowed to attach overnight, then treated with cisplatin or cisplatin plus inhibitor for the times stated. Following treatments, cells were allowed to grow and form colonies for 10 days. Colonies formed were stained with Coomassie R250 (Sigma) and counted on a COLCount Colony Counter (Oxford Optronix). All experiments represent the mean (±SEM) of at least three biological repeats of duplicate dishes/flasks for each treatment.

A further data set is described as follows: solubility. In kind it is physicochemical.
Where [6] appears, read: real-time fluorescence-based nuclease assay, resynthesised compounds.

T2 sequence (Q96SD1 1-362): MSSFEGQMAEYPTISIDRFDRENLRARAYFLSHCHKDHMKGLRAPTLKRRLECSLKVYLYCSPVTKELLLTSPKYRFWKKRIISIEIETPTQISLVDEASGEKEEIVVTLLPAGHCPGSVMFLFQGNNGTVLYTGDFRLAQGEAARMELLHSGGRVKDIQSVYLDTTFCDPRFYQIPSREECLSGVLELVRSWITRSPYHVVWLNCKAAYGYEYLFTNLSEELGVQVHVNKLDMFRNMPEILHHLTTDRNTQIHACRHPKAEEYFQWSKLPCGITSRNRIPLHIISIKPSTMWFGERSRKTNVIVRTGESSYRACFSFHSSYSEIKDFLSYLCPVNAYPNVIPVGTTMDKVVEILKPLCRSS

`C=CCNc1nc(NC(CC(C)C)C(=O)NO)c2cc(Cl)ccc2n1` (stereo not shown) [compound 10]: the “increase in SNM1A potency compared to K1 (6)” value on SNM1A [1] (fluorescence-based assay) is reported as 3 fold. In addition, on SNM1A [1] (setting [6]), the pIC50 is 4.48.

`C[C@H](Nc1nc(N2CCOCC2)nc2ccc(Cl)cc12)C(=O)NO` [compound 15]: the pIC50 at SNM1A [1] (setting [6]) is 4.38.

For `C[C@H](Nc1nc(NCc2ccccc2)nc2ccc(Cl)cc12)C(=O)NO` [compound 16], the pIC50 against SNM1C [2] (real-time fluorescence-based nuclease assay) was 5.96; on SNM1A [1] (setting [6]), 4.47.

Turning to `C=CCNC(=O)c1nc(N[C@@H](C)C(=O)NO)c2ccccc2n1` [compound 20], at SNM1A [3], the “inhibition of SNM1A in gel-based assay” value was “good inhibition”. The “decrease in SNM1A potency compared to 13” value at SNM1A [1] (fluorescence-based assay) worked out at 100 fold. The pIC50 on SNM1A [1] (setting [6]) is 4.08. The “inhibition of SNM1B in gel-based assay” value on SNM1B is “good inhibition”.

Consider `CCOc1nc(N[C@@H](C)C(=O)NO)c2cc(Cl)ccc2n1` [compound 21], for which the pIC50 on SNM1A [1] (setting [6]) is 4.17. Further, the “concentration giving complete inhibition of SNM1C digestion” value on SNM1C [4] was around 6 µM. Also, the “inhibition of SNM1C in gel-based assay” value at SNM1C [4] (2.5 nM SNM1C) is recorded as “clearly inhibits the nuclease activity of SNM1C”.

In the case of `C=CCNc1nc(N[C@H](C)C(=O)NO)c2cc(Cl)ccc2n1` [compound 12], the “inhibition of SNM1A in gel-based assay” value on SNM1A [3] is on record as “good inhibition”. On SNM1A [1] (setting [6]), the pIC50 was 5.66. For the same molecule, the “inhibition of SNM1B in gel-based assay” value against SNM1B was “good inhibition”. Besides, the “effect on cisplatin cytotoxicity” value in data set [5] (U2OS wild-type, 50 μM compound 20 hours pre-treatment, 0–15 μM cisplatin) is given as “potentiation of cisplatin cytotoxicity”. Further, in data set [5], the “cell death as single agent” value is reported as at most 10%.

With `O=c1[nH]c2cnc3ccc(Cl)cc3c2[nH]c1=O` [compound 2], the pIC50 at SNM1A [1] (setting [6]) is 5.70. Besides, the “solubility” value in the data set “solubility” is “poor solubility”.

Regarding `C[C@H](Nc1nc(N(C)C)nc2ccc(F)cc12)C(=O)NO` [compound 23], the pIC50 at SNM1A [1] (setting [6]) is 4.89.

As for `C=CCNc1nc(N[C@@H](CC(C)C)C(=O)OC)c2cc(Cl)ccc2n1` [compound 7], on SNM1A [1] (setting [6]), the pIC50 is below 3.00.

As to `C=CCNc1nc(NC(CO)C(=O)NO)c2cc(Cl)ccc2n1` (stereo not shown) [compound 14], the pIC50 on SNM1A [1] (setting [6]) was 5.39.

As for `C[C@H](Nc1nc(N(C)C)nc2ccc(Cl)cc12)C(=O)NO` [compound 22], at SNM1A [1] (setting [6]), the pIC50 was 4.96.

Consider `C=CCNc1nc(N[C@@H](CC(C)C)C(N)=O)c2cc(Cl)ccc2n1` [compound 8], for which the pIC50 at SNM1A [1] (setting [6]) is below 3.00.

Take `C=CCNc1nc(N[C@H](CO)CC(C)C)c2cc(Cl)ccc2n1` [compound 9]: the pIC50 at SNM1A [1] (setting [6]) was below 3.00.

For the molecule `C=CCNc1nc(N[C@@H](C)C(=O)NO)c2cc(Cl)ccc2n1` [compound 13], the “inhibition of SNM1A in gel-based assay” value against SNM1A [3] is “good inhibition”. At SNM1A [1] (setting [6]), the pIC50 was 6.10. The “inhibition of SNM1B in gel-based assay” value against SNM1B is listed as “good inhibition”. In addition, the “cell death as single agent” value in data set [5] is at most 10%.

As to “AZ1353160 [compound 4, reference compound]”, the “SNM1A IC50” value on SNM1A [1] (setting [6]) was “an IC50 value could not be calculated”.

In the case of `CCCN(C)c1nc(N[C@@H](C)C(=O)NO)c2cc(Cl)ccc2n1` [compound 17], the pIC50 on SNM1A [1] (setting [6]) was 4.70.

In the case of `COc1ccc2nc(N(C)C)nc(N[C@@H](C)C(=O)NO)c2c1` [compound 24], the negative-log IC50 (pIC50) on SNM1A [1] (setting [6]) was 4.13.

With `C=CCNc1nc(NCC(=O)NO)c2cc(Cl)ccc2n1` [compound 11], the pIC50 at SNM1A [1] (setting [6]) was 4.77.

As for `COc1cc2c3c(cccc3c1)C(=O)N(O)C2=O` [compound 3], the negative logarithm of the IC50 (pIC50) at SNM1A [1] (setting [6]) is 5.54. Further, the “solubility” value in the data set “solubility” is “poor solubility”.

As for `CCN(CC)c1nc(N[C@@H](C)C(=O)NO)c2cc(Cl)ccc2n1` [compound 18], at SNM1C [2] (fluorescence-based assays), the “selectivity among SNM1A, SNM1B, SNM1C” value is “only potent against SNM1C”. For the same molecule, the pIC50 at SNM1A [1] (setting [6]) was below 4.00.
